Measurements published in the CheMixHub viscosity set.

Assay: xn = mol fraction of the nth substance listed
Conditions: 100 kPa

CCCCCCCCO + COC(=O)OC
viscosity [mPa·s]
Conditions	293.15 K	298.15 K	303.15 K	308.15 K	313.15 K	318.15 K	323.15 K
x2 = 0.1	–	–	4.529	3.905	3.388	2.951	2.59
x2 = 0.1003	6.22	5.35	4.58	3.94	3.41	2.97	2.61
x2 = 0.1999	–	–	3.34	2.917	2.56	2.263	–
x2 = 0.2001	4.4	3.86	3.45	2.93	2.61	2.24	1.99
x2 = 0.2997	3.28	2.87	2.52	2.22	1.97	1.76	1.58
x2 = 0.3	–	–	2.516	2.22	1.971	1.763	–
x2 = 0.3999	–	–	1.931	1.73	1.547	1.395	–
x2 = 0.4005	2.44	2.14	1.9	1.69	1.5	1.35	1.22
x2 = 0.5	–	–	1.505	1.358	1.229	1.119	–
x2 = 0.5004	1.83	1.63	1.46	1.31	1.18	1.08	0.98
x2 = 0.5996	1.39	1.25	1.13	1.03	0.94	0.86	0.8
x2 = 0.6	–	–	1.183	1.079	0.984	0.903	–
x2 = 0.7	–	–	0.959	0.88	0.814	0.754	–
x2 = 0.7001	1.08	0.98	0.9	0.83	0.77	0.71	0.66
x2 = 0.7999	–	–	0.765	0.711	0.662	0.617	–
x2 = 0.8001	0.85	0.78	0.72	0.67	0.62	0.58	0.54
x2 = 0.9	–	–	0.633	0.591	0.554	0.523	–
x2 = 0.9005	0.66	0.61	0.58	0.54	0.51	0.48	0.45
